Data taken from patent US20040115227A1, “Thermoformable solid pharmaceutical composition for controlled release of perindopril” (priority 2000, published 2004).
Structures can show the parent of a compound that is named as a salt.

Assays:
[1] = degradation during extrusion in the hot state; type: physicochemical; details: extrusion in the hot state at temperatures of from 95° C. to 110° C.
Experimental: Moreover, and in surprising manner, it has been shown that the perindopril tert-butylamine salt, which is usually unstable to temperature or in association with certain acidic excipients, was not degraded, or only slightly degraded, during extrusion in the hot state carried out at temperatures of from 95° C. to 110° C. (less than 3% degradation).

[2] = stability study over 6 months; type: physicochemical; details: variable temperature and relative humidity conditions, packaging of the aluminium/PVC blister type

CCC[C@H](N[C@@H](C)C(=O)N1[C@H](C(=O)O)C[C@@H]2CCCC[C@@H]21)C(=O)OCC [perindopril tert-butylamine salt, perindopril]
degradation [1]: less than 3% | stability [2]: excellent stability
